Assay results: the Kinase Knowledgebase extract (Sharma et al. 2016)
pIC50: −log10 of the molar value.

molecular target: CDK2 (human) (UniProt P24941); test: Enzyme Assay

| pIC50 | Compound |
| --- | --- |
| ≥ 7.00 | CC(C)(C)c1cnc(CSc2cnc(NC(=O)Cc3ccc(OCCC(=O)NO)cc3)s2)o1 |
| ≥ 7.00 | CC(C)(C)c1cnc(CSc2cnc(NC(=O)c3ccc(/C=C/C(=O)NO)cc3)s2)o1 |
| ≥ 7.00 | CC(C)(C)c1cnc(CSc2cnc(NC(=O)c3ccc(OCCCC(=O)NO)cc3)s2)o1 |
| ≥ 7.00 | CC(C)(C)c1cnc(CSc2cnc(NCC3CCN(c4ncc(C(=O)NO)cn4)CC3)s2)o1 |
| ≥ 7.00 | CC(C)(C)c1cnc(CSc2cnc(NC(=O)CCCNCCC(=O)NO)s2)o1 |
| ≥ 7.00 | CC(C)(C)c1cnc(CSc2cnc(NC(=O)Cc3ccc(OCCCCC(=O)NO)cc3)s2)o1 |
| ≥ 7.00 | CC(C)(C)c1cnc(CSc2cnc(NC(=O)C3CCN(CCCC(=O)NO)CC3)s2)o1 |
| ≥ 7.00 | CC(C)(C)c1cnc(CSc2cnc(NC(=O)c3ccc(OCCCCCCC(=O)NO)cc3)s2)o1 |
| ≥ 7.00 | CC(C)(C)c1cnc(CSc2cnc(NC(=O)CCCCC(=O)NO)s2)o1 |
| ≥ 7.00 | CC(C(=O)Nc1ncc(SCc2ncc(C(C)(C)C)o2)s1)c1ccc(OCCCC(=O)NO)cc1 (configuration not stated) |
| ≥ 7.00 | CC(C)c1cnc(CSc2cnc(NC(=O)Cc3ccc(OCCCCCCC(=O)NO)cc3)s2)o1 |
| ≥ 7.00 | CNC(=O)CCCCCOc1ccc(CC(=O)Nc2ncc(SCc3ncc(C(C)(C)C)o3)s2)cc1 |
| ≥ 7.00 | CC(C)(C)c1cnc(CSc2cnc(NC(=O)Oc3ccc(OCCCC(=O)NO)cc3)s2)o1 |
| ≥ 7.00 | CC(C)(C)c1cnc(CSc2cnc(NC(=O)c3cccc(/C=C/C(=O)NO)c3)s2)o1 |
| ≥ 7.00 | CC(C)(C)c1cnc(CSc2cnc(NC(=O)CCCCCCC(=O)NO)s2)o1 |
| ≥ 7.00 | CC(C)(C)c1cnc(CSc2cnc(NC(=O)c3ccc(OCCCCCC(=O)NO)cc3)s2)o1 |
| ≥ 7.00 | CC(C)(C)c1cnc(CSc2cnc(NC(=O)CCCC(=O)NO)s2)o1 |
| ≥ 7.00 | CC(C)(C)c1cnc(CSc2cnc(NC(=O)c3ccc(OCCCCC(=O)NO)cc3)s2)o1 |
| ≥ 7.00 | CC(C)(C)c1cnc(CSc2cnc(NC(=O)C(C)(C)c3ccc(OCCCC(=O)NO)cc3)s2)o1 |
| ≥ 7.00 | CC(C)(C)c1cnc(CSc2cnc(NC(=O)C3CCN(CCCCC(=O)NO)CC3)s2)o1 |
| ≥ 7.00 | CC(C)(C)c1cnc(CSc2cnc(NC(=O)CCCNCCCCCCC(=O)NO)s2)o1 |
| ≥ 7.00 | CC(Sc1cnc(NC(=O)Cc2ccc(OCCCC(=O)NO)cc2)s1)c1ncc(C(C)(C)C)o1 (configuration not stated) |
| ≥ 7.00 | CC(C)(C)c1cnc(CSc2cnc(NC(=O)C3CCN(CCCCCC(=O)NO)CC3)s2)o1 |
| ≥ 7.00 | CC(C)(C)c1cnc(CSc2cnc(NC(=O)Cc3ccc(OCCCC(=O)NO)cc3)s2)o1 |
| ≥ 7.00 | CC(C)(C)c1cnc(CSc2cnc(NC(=O)C3CCN(c4ncc(C(=O)NO)cn4)CC3)s2)o1 |
| ≥ 7.00 | CC(C)(C)c1cnc(CSc2cnc(NC(=O)C3CCN(CCCCCCC(=O)NO)CC3)s2)o1 |
| ≥ 7.00 | CC(C)(C)c1cnc(CSc2cnc(NC(=O)Nc3ccc(OCCCC(=O)NO)cc3)s2)o1 |
